Measurements published in patent US9409975B2, “Antibody binding microbial heparin binding motif to retard or prevent microbial biofilm formation on implanted medical devices” (priority 2012, dated 2016).
Entries after “also recorded” stand apart in the source; their conditions may differ.

Columns and labels:
[1] = test system: Candida albicans BWP17 wt planktonic growth; test: Growth curves and doubling times in presence or absence of soluble heparin; assay type: cell-based; settings: 100 units/ml heparin
Procedure: For growth curves in the presence or absence of soluble heparin, a single colony of BWP17 wt was inoculated into 3 ml YPD medium and incubated overnight at 30° C. with shaking at 225 rpm. Overnight cultures were diluted to an OD600 of 0.1 in 5 ml of YPD, RPMI-MOPS, RPMI-HEPES or CSM in a 50 ml conical polypropylene tube. Preservative-free pharmaceutical heparin (1000 units/ml) was added to yield a final concentration of 100 units/ml in the heparin-treated samples. Cultures were grown at 30° C. with shaking and OD600 measured periodically. Doubling times (td) were calculated based on the equation td=ln 2/μ (μ=specific growth rate (48). One hundred units/ml heparin, the concentration recommended to prevent clotting of central venous catheters (20), had no effect on doubling times of planktonic yeast cells grown in YPD, RPMI-HEPES, RPMI-MOPS or CSM, as shown in FIGS. 2A and 2B.
A single copy of Int1, including 1450 bp upstream and 548 bp downstream from the Int1 open reading frame (www.candidagenome.org, Assembly 21), was integrated into the hisG locus of the int1−/− strain VBIDM2 (54) to produce the reconstituted strain KO509. Briefly, a copy of Int1 was generated by PCR, using primers 1 and 2 with BWP17 wt DNA as template and cloned into the SacI/MluI sites of pGEMHIS (51) to create pKO509. pKO509 was digested with SwaI and transformed into VBIDM2 to create the reconstituted strain KO509. PCR-mediated overlap extension mutagenesis (55) was used to produce copies of Int1 mutated at putative heparin binding domains. Briefly, primer pairs 1+3 and 2+4 (or 1+5 and 2+6) were used to produce two overlapping fragments of INT1 in which putative heparin binding domains were mutated (FKKRFFKL (SEQ ID NO: 2)→FKAAFFKL (SEQ ID NO: 53) or KQKKHQ (SEQ ID NO: 64)→KQAAHQ (SEQ ID NO: 63)), and a full length mutated sequence generated in a third […] using primers 1+2 with the fragments as template. […] Percent binding of each mutant to heparin in the ELISA assay was compared to the wild type according to the formula [Absorbance595 mutant]/[Absorbance595 wild type]×100.

[2] = test system: Candida albicans BWP17 wt; test: Filipin and calcofluor white staining microscopy with or without heparin; assay type: cell-based; settings: 100 units/ml heparin, heparin-treated vs untreated organisms
Procedure: Heparin effect on Candida albicans growth and morphology was determined. A single colony of BWP17 wt was inoculated into 3 ml YPD medium and incubated overnight at 30° C. with shaking at 225 rpm. Overnight cultures were diluted to an OD600 of 0.1 in 5 ml of YPD (yeast) or RPMI-HEPES (hyphae) in a 50 ml conical polypropylene tube and incubated in the presence or absence of 100 units/ml preservative-free pharmaceutical heparin at 30° C. for six hours. Cells (1 ml) were fixed with an equal volume of 4% formaldehyde in FACS buffer at 4° C. for one hour, then pelleted (7,000 rpm for 3 minutes) and washed with PBS. After reconstitution in 0.5 ml PBS, filipin (50 mg/ml stock solution in DMSO) was added to a final concentration of 100 μg/ml and incubated with cells at room temperature for five minutes. Cells were pelleted, washed with PBS and mounted on a slide using Fluoromount G. For calcofluor white staining, after six hours incubation, 1 μl of 1 mg/ml stock solution of calcofluor white in 0.1 N NaOH was added to 100 μl cells to a final calcofluor white concentration of 10 μg/ml.
Microscopy was performed by imaging filipin, PKH26, DAPI, and heparin-Alexa Fluor 488 on a Nikon Ti-E inverted microscope with a 100×CFI APO oil NA 1.49 objective. Filipin was excited with a Prior Lumen 200 metal halide light source set at 10% light output. […]

heparin
growth curves in presence or absence of soluble heparin [1]: identical | doubling times of wild type, Δint1 mutant, INT1 reintegrant and Motif 1, Motif 4, Motifs 1 and 4 reintegrants with and without heparin ([1]; 30° C., RPMI-HEPES): no difference | effect on doubling times of planktonic yeast cells ([1]; 30° C., YPD, RPMI-HEPES, RPMI-MOPS or CSM): no effect; also recorded: identical | integrity of membrane sterols (filipin) and location of septin rings (calcofluor white) [2]: identical
